Experimental data published in patent US20230278972A1, “SUBSTITUTED HALOALKYL SULFONANILIDE HERBICIDES” (FMC Corporation, priority 2020, published 2023).

Experiments:
Type in all cases: in vivo
[1] = test system: blackgrass (Alopecurus myosuroides); experiment: Test A1 preemergence, blackgrass
Method in brief: (§1)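 Herbicidal response was scored on plants treated either preemergence, by directed spray onto soil of a loam–sand blend after sowing, or postemergence on potted plants at the one- to two-leaf stage, 2–10 cm high. Test chemicals were carried in a non-phytotoxic solvent mix with surfactant.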

corn (Zea mays) [2] = experiment: Test A1 preemergence, corn
Method in brief: (§2)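 Postemergence species (ragweed, Palmer pigweed, wild oat) were sprayed at one- to two-leaf stage, 2 to 10 cm tall. Corn was treated preemergence by directed soil spray. Both used a loam soil/sand blend and compounds in a non-phytotoxic solvent mixture with surfactant.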

[3] = test system: Foxtail, Giant (giant foxtail, Setaria faberi); experiment: Test A1 preemergence, Foxtail, Giant
Method in brief: as §1

[4] = test system: goosegrass (Eleusine indica); experiment: Test A1 preemergence, goosegrass
Method in brief: as §1

kochia (Bassia scoparia) [5] = experiment: Test A1 preemergence, kochia
Method in brief: as §1

[6] = test system: Oat, Wild (wild oat, Avena fatua); experiment: Test A1 preemergence, Oat, Wild
Method in brief: as §1

[7] = test system: Pigweed, Palmer (palmer amaranth, palmer pigweed, Amaranthus palmeri); experiment: Test A1 preemergence, Pigweed, Palmer
Method in brief: as §1

[8] = test system: ragweed (common ragweed, Ambrosia artemisiifolia); experiment: Test A1 preemergence, ragweed
Method in brief: as §1

[9] = test system: Ryegrass, Italian (Italian ryegrass, Lolium multiflorum); experiment: Test A1 preemergence, Ryegrass, Italian
Method in brief: as §1

soybean (Glycine max) [10] = experiment: Test A1 preemergence, soybean
Method in brief: as §1

[11] = test system: wheat (Triticum aestivum); experiment: Test A1 preemergence, wheat
Method in brief: as §1

[12] = test system: blackgrass (Alopecurus myosuroides); experiment: Test A1 postemergence, blackgrass; details: Postemergence, 0 to 100 scale (0 no effect, 100 complete control)
Method in brief: (§3)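 Plants were grown in a loam soil/sand blend, with test chemicals formulated in a non-phytotoxic solvent mixture containing surfactant. Preemergence treatment (corn) was a directed soil spray at planting. Postemergence treatment was applied to plants 2 to 10 cm tall at the one- to two-leaf stage.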

corn (Zea mays) [13] = experiment: Test A1 postemergence, corn; details: Postemergence
Method in brief: as §1

[14] = test system: Foxtail, Giant (giant foxtail, Setaria faberi); experiment: Test A1 postemergence, Foxtail, Giant; details: Postemergence
Method in brief: as §3

[15] = test system: goosegrass (Eleusine indica); experiment: Test A1 postemergence, goosegrass; details: Postemergence
Method in brief: as §3

kochia (Bassia scoparia) [16] = experiment: Test A1 postemergence, kochia; details: Postemergence
Method in brief: as §3

[17] = test system: Oat, Wild (wild oat, Avena fatua); experiment: Test A1 postemergence, Oat, Wild; details: Postemergence
Method in brief: as §2

[18] = test system: Pigweed, Palmer (palmer amaranth, palmer pigweed, Amaranthus palmeri); experiment: Test A1 postemergence, Pigweed, Palmer; details: Postemergence
Method in brief: as §2

[19] = test system: ragweed (common ragweed, Ambrosia artemisiifolia); experiment: Test A1 postemergence, ragweed; details: Postemergence
Method in brief: as §2

[20] = test system: Ryegrass, Italian (Italian ryegrass, Lolium multiflorum); experiment: Test A1 postemergence, Ryegrass, Italian; details: Postemergence
Method in brief: as §3

soybean (Glycine max) [21] = experiment: Test A1 postemergence, soybean; details: Postemergence
Method in brief: as §3

[22] = test system: wheat (Triticum aestivum); experiment: Test A1 postemergence, wheat; details: Postemergence
Method in brief: as §3

[23] = test system: galium (catchweed bedstraw, Galium aparine); experiment: Test A1 postemergence, galium; details: Postemergence
Method in brief: as §3

[24] = test system: horseweed (Erigeron canadensis); experiment: Test A1 postemergence, horseweed; details: Postemergence
Method in brief: as §3

[25] = test system: barnyardgrass (Echinochloa crus-galli); experiment: Test B1 flooded paddy test, barnyardgrass; details: 250 g ai/ha, Flood, applied to paddy water, 2-leaf stage, visually evaluated after 10 to 14 days
Text: (§4) A dash (-) response means no test result.

[26] = test system: ducksalad (Heteranthera limosa); experiment: Test B1 flooded paddy test, ducksalad; details: 250 g ai/ha, Flood, applied to paddy water, 2-leaf stage, visually evaluated after 10 to 14 days
Text: as §4

rice (Oryza sativa) = experiment: Test B1 flooded paddy test, rice; details: 250 g ai/ha, Flood, applied to paddy water, 2-leaf stage, visually evaluated after 10 to 14 days
Text: as §4

[27] = 31 g ai/ha, 0 to 100 scale (0 no effect, 100 complete control)
[28] = 125 g ai/ha, 0 to 100 scale, 0 no effect, 100 complete control
[29] = 31 g ai/ha, 0 to 100 scale (0 no effect, 100 complete control), 10 days

Cc1c(C2=NO[C@@H]3CCC[C@H]23)cc(N(COC(=O)C(C)(C)C)S(=O)(=O)C(F)(F)F)c(C)c1C [Compound 336, [[(Trifluoromethyl)sulfonyl][2,3,4-trimethyl-5-[(3aR,6aR)-3a,5,6,6a-tetrahydro-4H-cyclopent[d]isoxazol-3-yl]phenyl]amino]methyl 2,2-dimethylpropanoate]
50: Plant response rating, Ragweed [8, 28] | Plant response rating, Pigweed, Palmer ([18]; 125 g ai/ha, 0 to 100 scale) | Plant response rating, Ragweed [19, 29] | Plant response rating, Soybean (soybean (Glycine max) [21]; 125 g ai/ha, 0 to 100 scale)
20: Plant response rating, Foxtail, Giant [3, 27] | Plant response rating, Oat, Wild [6, 28] | Plant response rating, Pigweed, Palmer [18, 29] | Plant response rating, Soybean (soybean (Glycine max) [21]; [29])
80: Plant response rating, Foxtail, Giant [3, 28] | Plant response rating, Kochia (kochia (Bassia scoparia) [16]; 125 g ai/ha, 0 to 100 scale) | Plant response rating, Ragweed ([19]; 125 g ai/ha, 0 to 100 scale)
70: Plant response rating, Goosegrass [4, 28] | Plant response rating, Kochia (kochia (Bassia scoparia) [16]; [29])
45: Plant response rating, Rice (0 to 100 scale, 0 is no effect, 100 is complete control) (rice (Oryza sativa))
75: Plant response rating, Ducksalad (0 to 100 scale, 0 is no effect, 100 is complete control) [26]
100: Plant response rating, Pigweed, Palmer [7, 28] | Plant response rating, Galium ([23]; 125 g ai/ha, 0 to 100 scale)
60: Plant response rating, Pigweed, Palmer [7, 27] | Plant response rating, Galium [23, 29] | Plant response rating, Horseweed ([24]; 125 g ai/ha, 0 to 100 scale)
95: Plant response rating, Barnyardgrass (0 to 100 scale, 0 is no effect, 100 is complete control) [25]
0: Plant response rating, Blackgrass [1, 27] | Plant response rating, Blackgrass [1, 28] | Plant response rating, Corn (corn (Zea mays) [2]; [27]) | Plant response rating, Corn (corn (Zea mays) [2]; [28]) | Plant response rating, Kochia (kochia (Bassia scoparia) [5]; [27]) | Plant response rating, Kochia (kochia (Bassia scoparia) [5]; [28]) | Plant response rating, Oat, Wild [6, 27] | Plant response rating, Ragweed [8, 27] | Plant response rating, Soybean (soybean (Glycine max) [10]; [27]) | Plant response rating, Soybean (soybean (Glycine max) [10]; [28]) | Plant response rating, Wheat [11, 27] | Plant response rating, Wheat [11, 28] | Plant response rating, Blackgrass ([12]; 31 g ai/ha, 10 days) | Plant response rating, Blackgrass ([12]; 125 g ai/ha) | Plant response rating, Corn (corn (Zea mays) [13]; [29]) | Plant response rating, Corn (corn (Zea mays) [13]; 125 g ai/ha, 0 to 100 scale) | Plant response rating, Foxtail, Giant [14, 29] | Plant response rating, Goosegrass [15, 29] | Plant response rating, Goosegrass ([15]; 125 g ai/ha, 0 to 100 scale) | Plant response rating, Oat, Wild [17, 29] | Plant response rating, Oat, Wild ([17]; 125 g ai/ha, 0 to 100 scale) | Plant response rating, Ryegrass, Italian [20, 29] | Plant response rating, Ryegrass, Italian ([20]; 125 g ai/ha, 0 to 100 scale) | Plant response rating, Wheat [22, 29] | Plant response rating, Wheat ([22]; 125 g ai/ha, 0 to 100 scale) | Plant response rating, Horseweed [24, 29]
40: Plant response rating, Foxtail, Giant ([14]; 125 g ai/ha, 0 to 100 scale)
30: Plant response rating, Goosegrass [4, 27] | Plant response rating, Ryegrass, Italian [9, 27] | Plant response rating, Ryegrass, Italian [9, 28]

Cc1c(C(=O)N2CCC(F)CC2)cc(N(COC(=O)C(C)(C)C)S(=O)(=O)C(F)(F)F)c(C)c1C [Compound 361]
95: Plant response rating, Barnyardgrass (0 to 100 scale, 0 is no effect, 100 is complete control) [25]
40: Plant response rating, Corn (corn (Zea mays) [13]; 125 g ai/ha, 0 to 100 scale)
80: Plant response rating, Ragweed ([19]; 125 g ai/ha, 0 to 100 scale) | Plant response rating, Galium [23, 29]
50: Plant response rating, Foxtail, Giant ([14]; 125 g ai/ha, 0 to 100 scale) | Plant response rating, Kochia (kochia (Bassia scoparia) [16]; 125 g ai/ha, 0 to 100 scale) | Plant response rating, Soybean (soybean (Glycine max) [21]; [29])
10: Plant response rating, Goosegrass [4, 27] | Plant response rating, Foxtail, Giant [14, 29] | Plant response rating, Pigweed, Palmer [18, 29]
30: Plant response rating, Kochia (kochia (Bassia scoparia) [5]; [28]) | Plant response rating, Goosegrass ([15]; 125 g ai/ha, 0 to 100 scale)
90: Plant response rating, Foxtail, Giant [3, 28] | Plant response rating, Ragweed [8, 28] | Plant response rating, Galium ([23]; 125 g ai/ha, 0 to 100 scale) | Plant response rating, Horseweed ([24]; 125 g ai/ha, 0 to 100 scale)
35: Plant response rating, Rice (0 to 100 scale, 0 is no effect, 100 is complete control) (rice (Oryza sativa))
20: Plant response rating, Pigweed, Palmer [7, 28] | Plant response rating, Ragweed [8, 27] | Plant response rating, Soybean (soybean (Glycine max) [10]; [28]) | Plant response rating, Oat, Wild ([17]; 125 g ai/ha, 0 to 100 scale) | Plant response rating, Pigweed, Palmer ([18]; 125 g ai/ha, 0 to 100 scale) | Plant response rating, Wheat ([22]; 125 g ai/ha, 0 to 100 scale)
60: Plant response rating, Ragweed [19, 29]
0: Plant response rating, Blackgrass [1, 27] | Plant response rating, Blackgrass [1, 28] | Plant response rating, Corn (corn (Zea mays) [2]; [27]) | Plant response rating, Corn (corn (Zea mays) [2]; [28]) | Plant response rating, Foxtail, Giant [3, 27] | Plant response rating, Kochia (kochia (Bassia scoparia) [5]; [27]) | Plant response rating, Oat, Wild [6, 27] | Plant response rating, Oat, Wild [6, 28] | Plant response rating, Pigweed, Palmer [7, 27] | Plant response rating, Ryegrass, Italian [9, 27] | Plant response rating, Ryegrass, Italian [9, 28] | Plant response rating, Soybean (soybean (Glycine max) [10]; [27]) | Plant response rating, Wheat [11, 27] | Plant response rating, Wheat [11, 28] | Plant response rating, Blackgrass ([12]; 31 g ai/ha, 10 days) | Plant response rating, Blackgrass ([12]; 125 g ai/ha) | Plant response rating, Corn (corn (Zea mays) [13]; [29]) | Plant response rating, Goosegrass [15, 29] | Plant response rating, Kochia (kochia (Bassia scoparia) [16]; [29]) | Plant response rating, Oat, Wild [17, 29] | Plant response rating, Ryegrass, Italian [20, 29] | Plant response rating, Ryegrass, Italian ([20]; 125 g ai/ha, 0 to 100 scale) | Plant response rating, Wheat [22, 29]
65: Plant response rating, Ducksalad (0 to 100 scale, 0 is no effect, 100 is complete control) [26]
100: Plant response rating, Goosegrass [4, 28]
70: Plant response rating, Soybean (soybean (Glycine max) [21]; 125 g ai/ha, 0 to 100 scale) | Plant response rating, Horseweed [24, 29]
